# Data taken from US12077503B2, “Substituted cyclic amides and their use as herbicides” (FMC CORPORATION, priority 2015, dated 2024).
# Legend:
# Test in all cases: Test C preemergence
# Type in all cases: in vivo
# [1] = test system: foxtail, giant (giant foxtail, Setaria faberii); settings: for Plant response rating, Foxtail, Giant: scale 0 to 100, 0 no effect, 100 complete control
# Procedure, shortened: (§1)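 Seeds in loam-sand soil treated preemergence, or plants in peat-based medium sprayed postemergence at 2–18 cm (1- to 4-leaf stage), with compound in a non-phytotoxic solvent mixture containing surfactant. Greenhouse-held 13–15 d, then visually rated against controls on a 0–100 scale (0 = no effect, 100 = complete control); dash = not tested.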
# [2] = test system: johnsongrass (Sorghum halepense); settings: for Plant response rating, Johnsongrass: scale 0 to 100, 0 no effect, 100 complete control
# Procedure, shortened: as §1
# [3] = test system: Galium (catchweed bedstraw, Galium aparine); settings: for Plant response rating, Galium: scale 0 to 100, 0 no effect, 100 complete control
# Procedure, shortened: as §1
# [4] = test system: morningglory (Ipomoea coccinea); settings: for Plant response rating, Morningglory: scale 0 to 100, 0 no effect, 100 complete control
# Procedure, shortened: as §1
# [5] = test system: waterhemp (common waterhemp, Amaranthus rudis); settings: for Plant response rating, Waterhemp: scale 0 to 100, 0 no effect, 100 complete control
# Procedure, shortened: as §1
# [6] = test system: soybean (Glycine max); settings: for Plant response rating, Soybean: scale 0 to 100, 0 no effect, 100 complete control
# Procedure, shortened: as §1
# [7] = test system: pigweed (Amaranthus retroflexus); settings: for Plant response rating, Pigweed: scale 0 to 100, 0 no effect, 100 complete control
# Procedure, shortened: as §1
# [8] = test system: ragweed (common ragweed, Ambrosia elatior); settings: for Plant response rating, Ragweed: scale 0 to 100, 0 no effect, 100 complete control
# Procedure, shortened: as §1
# [9] = test system: velvetleaf (Abutilon theophrasti); settings: for Plant response rating, Velvetleaf: scale 0 to 100, 0 no effect, 100 complete control
# Procedure, shortened: as §1
# [10] = test system: ryegrass, Italian (Italian ryegrass, Lolium multiflorum); settings: for Plant response rating, Ryegrass, Italian: scale 0 to 100, 0 no effect, 100 complete control
# Procedure, shortened: as §1
# [11] = test system: corn (Zea mays); settings: for Plant response rating, Corn: scale 0 to 100, 0 no effect, 100 complete control
# Procedure, shortened: as §1
# [12] = test system: nutsedge, yellow (yellow nutsedge, Cyperus esculentus); settings: for Plant response rating, Nutsedge, Yellow: scale 0 to 100, 0 no effect, 100 complete control
# Procedure, shortened: as §1
# [13] = test system: barnyardgrass (Echinochloa crus-galli); settings: for Plant response rating, Barnyardgrass: scale 0 to 100, 0 no effect, 100 complete control
# Procedure, shortened: as §1
# [14] = test system: oilseed rape (Brassica napus); settings: for Plant response rating, Oilseed Rape: scale 0 to 100, 0 no effect, 100 complete control
# Procedure, shortened: as §1
# [15] = test system: crabgrass, large (large crabgrass, Digitaria sanguinalis); settings: for Plant response rating, Crabgrass, Large: scale 0 to 100, 0 no effect, 100 complete control
# Procedure, shortened: as §1
# [16] = test system: blackgrass (Alopecurus myosuroides); settings: for Plant response rating, Blackgrass: scale 0 to 100, 0 no effect, 100 complete control
# Procedure, shortened: as §1
# [17] = test system: wheat (winter wheat, Triticum aestivum); settings: for Plant response rating, Wheat: scale 0 to 100, 0 no effect, 100 complete control
# Procedure, shortened: as §1
# [18] = test system: lambsquarters (Chenopodium album); settings: for Plant response rating, Lambsquarters: scale 0 to 100, 0 no effect, 100 complete control
# Procedure, shortened: as §1
# [19] = 31 g ai/ha, 0 is no effect, 100 is complete control
smiles,measurement,setting,value
Cc1ccc(C2CN(C)C(=O)C2C(=O)Nc2ccccc2C(F)(F)F)cc1 (stereo not drawn) [Compound 665],"Plant response rating (scale of 0 to 100), Foxtail, Giant",[1]; [19],90
same,"Plant response rating, Foxtail, Giant",[1]; 62 g ai/ha,95
same,"Plant response rating, Foxtail, Giant",[1]; 125 g ai/ha,98
same,"Plant response rating, Foxtail, Giant",[1]; 250 g ai/ha,98
same,"Plant response rating (scale of 0 to 100), Johnsongrass",[2]; [19],10
same,"Plant response rating, Johnsongrass",[2]; 62 g ai/ha,25
same,"Plant response rating, Johnsongrass",[2]; 125 g ai/ha,25
same,"Plant response rating, Johnsongrass",[2]; 250 g ai/ha,45
same,"Plant response rating (scale of 0 to 100), Galium",[3]; [19],90
same,"Plant response rating, Galium",[3]; 62 g ai/ha,90
same,"Plant response rating, Galium",[3]; 125 g ai/ha,90
same,"Plant response rating, Galium",[3]; 250 g ai/ha,90
same,"Plant response rating (scale of 0 to 100), Morningglory",[4]; [19],0
same,"Plant response rating, Morningglory",[4]; 62 g ai/ha,15
same,"Plant response rating, Morningglory",[4]; 125 g ai/ha,20
same,"Plant response rating, Morningglory",[4]; 250 g ai/ha,10
same,"Plant response rating (scale of 0 to 100), Waterhemp",[5]; [19],50
same,"Plant response rating, Waterhemp",[5]; 62 g ai/ha,40
same,"Plant response rating, Waterhemp",[5]; 125 g ai/ha,65
same,"Plant response rating, Waterhemp",[5]; 250 g ai/ha,85
same,"Plant response rating (scale of 0 to 100), Soybean",[6]; [19],10
same,"Plant response rating, Soybean",[6]; 62 g ai/ha,10
same,"Plant response rating, Soybean",[6]; 125 g ai/ha,0
same,"Plant response rating, Soybean",[6]; 250 g ai/ha,10
same,"Plant response rating (scale of 0 to 100), Pigweed",[7]; [19],0
same,"Plant response rating, Pigweed",[7]; 62 g ai/ha,60
same,"Plant response rating, Pigweed",[7]; 125 g ai/ha,50
same,"Plant response rating, Pigweed",[7]; 250 g ai/ha,50
same,"Plant response rating (scale of 0 to 100), Ragweed",[8]; [19],40
same,"Plant response rating, Ragweed",[8]; 62 g ai/ha,55
same,"Plant response rating, Ragweed",[8]; 125 g ai/ha,70
same,"Plant response rating, Ragweed",[8]; 250 g ai/ha,75
same,"Plant response rating (scale of 0 to 100), Velvetleaf",[9]; [19],20
same,"Plant response rating, Velvetleaf",[9]; 62 g ai/ha,35
same,"Plant response rating, Velvetleaf",[9]; 125 g ai/ha,60
same,"Plant response rating, Velvetleaf",[9]; 250 g ai/ha,70
same,"Plant response rating (scale of 0 to 100), Ryegrass, Italian",[10]; [19],30
same,"Plant response rating, Ryegrass, Italian",[10]; 62 g ai/ha,60
same,"Plant response rating, Ryegrass, Italian",[10]; 125 g ai/ha,65
same,"Plant response rating, Ryegrass, Italian",[10]; 250 g ai/ha,60
same,"Plant response rating (scale of 0 to 100), Corn",[11]; [19],0
same,"Plant response rating, Corn",[11]; 62 g ai/ha,10
same,"Plant response rating, Corn",[11]; 125 g ai/ha,75
same,"Plant response rating, Corn",[11]; 250 g ai/ha,70
same,"Plant response rating (scale of 0 to 100), Nutsedge, Yellow",[12]; [19],0
same,"Plant response rating, Nutsedge, Yellow",[12]; 62 g ai/ha,0
same,"Plant response rating, Nutsedge, Yellow",[12]; 125 g ai/ha,0
same,"Plant response rating, Nutsedge, Yellow",[12]; 250 g ai/ha,0
same,"Plant response rating (scale of 0 to 100), Barnyardgrass",[13]; [19],85
same,"Plant response rating, Barnyardgrass",[13]; 62 g ai/ha,95
same,"Plant response rating, Barnyardgrass",[13]; 125 g ai/ha,98
same,"Plant response rating, Barnyardgrass",[13]; 250 g ai/ha,100
same,"Plant response rating (scale of 0 to 100), Oilseed Rape",[14]; [19],30
same,"Plant response rating, Oilseed Rape",[14]; 62 g ai/ha,60
same,"Plant response rating, Oilseed Rape",[14]; 125 g ai/ha,80
same,"Plant response rating, Oilseed Rape",[14]; 250 g ai/ha,85
same,"Plant response rating (scale of 0 to 100), Crabgrass, Large",[15]; [19],98
same,"Plant response rating, Crabgrass, Large",[15]; 62 g ai/ha,100
same,"Plant response rating, Crabgrass, Large",[15]; 125 g ai/ha,100
same,"Plant response rating, Crabgrass, Large",[15]; 250 g ai/ha,100
same,"Plant response rating (scale of 0 to 100), Blackgrass",[16]; [19],60
same,"Plant response rating, Blackgrass",[16]; 62 g ai/ha,60
same,"Plant response rating, Blackgrass",[16]; 125 g ai/ha,90
same,"Plant response rating, Blackgrass",[16]; 250 g ai/ha,90
same,"Plant response rating (scale of 0 to 100), Wheat",[17]; [19],15
same,"Plant response rating, Wheat",[17]; 62 g ai/ha,50
same,"Plant response rating, Wheat",[17]; 125 g ai/ha,50
same,"Plant response rating, Wheat",[17]; 250 g ai/ha,90
same,"Plant response rating (scale of 0 to 100), Lambsquarters",[18]; [19],10
same,"Plant response rating, Lambsquarters",[18]; 62 g ai/ha,45
same,"Plant response rating, Lambsquarters",[18]; 125 g ai/ha,70
same,"Plant response rating, Lambsquarters",[18]; 250 g ai/ha,85
